Legend:
[1] = system: human complement alternative pathway; assay: Inhibition of human complement alternative pathway (zymosan-activated human serum with EGTA, C5b-9 formation); type: biochemical; details: zymosan A, C5b-9 readout
Source text: The alternative pathway can be activated by zymosan. The extent of activation of the alternative pathway can be evaluated by assaying the formation of the C5b-9 complex. […] Since the activation of the two pathways requires both magnesium and calcium ions, and the alternative pathway requires magnesium ions only, after chelation with the calcium ion chelator EGTA, the alternative pathway is not inhibited, while the classical pathway and the lectin pathway are. After chelation with EDTA, the three pathways are all inhibited. Therefore, the inhibitory effects of the small-molecule compounds on the alternative pathway can be evaluated by activating the complement alternative pathway in human serum with zymosan in the presence of the EGTA chelator and assaying the formation of the C5b-9 complex.
Zymosan A powder was resuspended at 10 mg/mL in TBS solution and activated by heating at 100° C. for 2 h. After the activation, the suspension was centrifuged at 4000 rpm for 30 min, and the supernatant was discarded. The residue was resuspended in TBS to form a 50 mg/mL suspension. The suspension was aliquoted and stored in a −20° C. freezer. The day before the experiment, the activated zymosan A solution was diluted to 1 mg/mL with the carbonic acid buffer (pH 9.5) and added to a 96-well adsorption black plate at 100 μL/well, and the plate was coated at 4° C. overnight.
A 100 mM Na2CO3 solution and a 100 mM NaHCO3 solution were prepared and mixed in a ratio of Na2CO3 to NaHCO3 of 3:7 (v/v) to adjust the pH to 9.5. The mixture was stored at room temperature for later use.
Activation reactions of the complement alternative pathway: Human serum was 5-fold diluted with PBS solution to form a 20% serum solution, and the solution was placed on ice for later use. 20 mM test compounds dissolved in 100% DMSO were serially diluted with 100% DMSO to 2000, 500, 125, 31.25, 7.8125, 0.488281, 0.12207, 0.030518, and 0.007629 μM, with the blank well containing 100% DMSO. The compounds and 100% DMSO were then 20-fold diluted in 2× EGTA reaction buffer (4.2 mM HEPES, 0.15 mM CaCl2), 140 mM NaCl, 4.5 mM MgCl2, 0.1% gelatin, 20 mM EGTA). Meanwhile, 100% DMSO was 20-fold diluted in 2× EDTA reaction buffer (4.2 mM HEPES, 0.15 mM CaCl2), 140 mM NaCl, 4.5 mM MgCl2, 0.1% gelatin, 20 mM EDTA) as a negative control well. 40-μL serum-EGTA reaction mixtures were prepared by mixing well 20 μL of 20% human serum, 4 μL of the above test compounds or DMSO diluted in 2× EGTA reaction buffer, and 16 μL of 2× EGTA reaction buffer. Serum-EGTA-DMSO was used as a blank control. The mixtures were incubated at room temperature for 30 min. In the negative control well, a 40-μL serum-EDTA reaction mixture was prepared by mixing well 20 μL of 20% human serum, 4 μL of the above DMSO diluted in 2× EDTA reaction buffer, and 16 μL of 2× EDTA reaction buffer. The mixture was incubated at room temperature for 30 min. The 96-well adsorption black plate coated with zymosan A one day ahead of time was washed 3 times with 300 μL/well TBST (0.05% tween 20) solution, and the serum-EGTA-test compound reaction mixtures, the blank control well, and the serum-EDTA-DMSO reaction mixture (negative control well) were added at 25 L/well. The mixtures were reacted at 37° C. for 40 min. The plate was washed 3 times with 300 μL/well TBST solution, the StartingBlock™ T20 (TBS) blocking buffer was added at 300 μL/well, and the plate was incubated at 37° C. for 15 min.

[2] = molecular target: human complement factor B (Homo sapiens (Human), UniProt P00751); assay: biochemical
Procedure: Assays for the C3a des Arg epitope generated after C3 is cleaved can be used to evaluate the efficiency of C3 being hydrolyzed, i.e., the C3bBb enzyme activity, and thereby to evaluate the effects of the compounds on the C3bBb enzyme.
A 100 mM Na2CO3 solution and a 100 mM NaHCO3 solution were prepared and mixed in a ratio of Na2CO3 to NaHCO3 of 3:7 (v/v) to adjust the pH to 9.5. The mixture was stored at room temperature for later use. […] The compounds and 100% DMSO were then 20-fold diluted in C3 reaction buffer (PBS pH 7.4, 1 mM MgCl2, 0.05% CHAPS).
Cleavage reactions of the C3 protein: In a 96-well low-volume white plate, 10-μL reaction systems were prepared by adding CVF:Bb (to a final concentration of 2 nM) and 1 μL of the above test compounds and DMSO diluted in C3 reaction buffer to C3 reaction buffer (PBS pH 7.4, 1 mM MgCl2, 0.05% CHAPS). The plate was incubated at room temperature for 1 h. […] Human complement factor C3 was added to the reaction systems to a final concentration of 500 nM. After they were well mixed, the mixtures were reacted in a constant-temperature incubator at 37° C. for 2 h. Among the reaction mixtures, the reaction well that contained only 500 nM human complement factor C3 was used as a negative control. To a 96-well adsorption black plate, 97 μL of the carbonic acid buffer (pH 9.5) was added, and the C3 protein cleavage reaction mixtures were added at 3 μL/well. After they were well mixed, the plate was sealed and incubated at 4° C. overnight.
C3a des Arg assays: The plate was washed 3 times with 300 μL/well TBST (0.05% tween 20) solution, the StartingBlock™ T20 (TBS) blocking buffer was added at 300 μL/well, and the plate was incubated at 37° C. for 5 min. […] The plate was washed 3 times with 300 μL/well PBST solution, the goat anti-mouse IgG H&L (HRP) antibody was 1:5000 diluted in PBST solution and added at 100 μL/well, and the plate was incubated at 37° C. for 30 min. […]
The inhibition rate was calculated using the following formula:

[3] = system: passive heymann nephritis rats; assay: Therapeutic effects on Heymann nephritis in rats induced by sheep anti-rat Fx1A serum; type: in vivo; details: for decrease in rat serum iC3b+C3d compared to the model group: serum day 15; for decrease in the ratio of total protein/creatinine in rat urine compared to the model group: day 14
Source text: Experimental animals: laboratory male SD rats, provided by Vital River Laboratory Animal Technology Co., Ltd. (production license number: SCXK (Zhejiang) 2019-0001; animal certificate number: 20210401Abzz0619000322; weighing 180-200 g at purchase).
After the acclimatization, the male SD rats were grouped as follows according to total protein in urine and body weight in the 2 days before the experiment:
On day 0 of the experiment, the model group and administration groups were given a single tail vein injection of Fx1A serum (5 mL/kg), and the normal group was given a tail vein injection of normal goat serum. […] The experiment ended on day 15. Two-hour urine was collected on days 2, 4, 6, 8, 11, and 14 and assayed for creatinine and total protein. Serum was collected on day 15 for complement activation fragment (C3d+iC3b) analysis.
The experimental data are expressed as mean±standard error (SEM). Statistical comparison was performed using Excel software t-test. The data of the model group and the data of the blank control group were analyzed and compared to judge whether a significant mathematical statistical significance exists. *P<0.05 indicates a significant difference between the model group and the blank control group, **P<0.01 indicates a highly significant difference between the model group and the blank control group, and ***P<0.001 indicates a very highly significant difference between the model group and the blank control group. #P<0.05 indicates a significant difference between an administration group and the model group, ##P<0.01 indicates a highly significant difference between an administration group and the model group, and ###P<0.001 indicates a very highly significant difference between an administration group and the model group.

[4] = system: patients with PNH and active hemolysis; details: cited from earlier work
IgAN patients = details: 4 IgAN patients, end of phase 2; cited from earlier work

## CCO[C@H]1C[C@H]2CCC(c3ccc(C(=O)O[C@@H]4O[C@H](C(=O)O)[C@@H](O)[C@H](O)[C@H]4O)cc3)(C1)N2Cc1c(OC)cc(C)c2[nH]ccc12 (stereo in doubt) [Example 5, (2S,3S,4S,5R,6S)-6-((4-((1S,3S,5R)-3-Ethoxy-8-((5-methoxy-7-methyl-1H-indol-4-yl)methyl)-8-azabicyclo[3.2.1]octan-1-yl)benzoyl)oxy)-3,4,5-trihydroxytetrahydro-2H-pyran-2-carboxylic acid]
[1]
  IC50: 74.6 nM
[2]
  IC50: 30 nM

## CCO[C@H]1C[C@H]2CC[C@](c3ccc(C(=O)O)cc3)(C1)N2Cc1c(OC)cc(C)c2[nH]ccc12 (relative stereo) [Example 1, (±)-rel-4-((1S,3S,5R)-3-Ethoxy-8-((5-methoxy-7-methyl-1H-indol-4-yl)methyl)-8-azabicyclo[3.2.1]octan-1-yl)benzoic acid]
[1]
  IC50: 43.2 nM

## CCO[C@H]1C[C@H]2CCC(c3ccc(C(=O)O)cc3)(C1)N2Cc1c(OC)cc(C)c2[nH]ccc12 (stereo in doubt) [Example 1-1, 4-((1S,3S,5R)-3-Ethoxy-8-((5-methoxy-7-methyl-1H-indol-4-yl)methyl)-8-azabicyclo[3.2.1]octan-1-yl)benzoic acid]
[3]; 10 mg/kg orally twice daily
  decrease in rat serum iC3b+C3d compared to the model group: 76.2%
[3]; 30 mg/kg orally twice daily
  decrease in rat serum iC3b+C3d compared to the model group: 105.5%
[3]; 90 mg/kg orally twice daily
  decrease in rat serum iC3b+C3d compared to the model group: 108.7%
[1]
  IC50: 27 nM

## CCO[C@H]1C[C@H]2CCC(c3ccc(C(=O)O)cc3)(C1)N2Cc1c(C2CC2)cc(C)c2[nH]ccc12 (stereo in doubt) [Example 4, 4-((1S,3S,5R)-8-((5-Cyclopropyl-7-methyl-1H-indol-4-yl)methyl)-3-ethoxy-8-azabicyclo[3.2.1]octan-1-yl)benzoic acid]
[1]
  IC50: 50.6 nM
[2]
  IC50: 1.6 nM

## CCO[C@H]1CCN(Cc2c(OC)cc(C)c3[nH]ccc23)[C@H](c2ccc(C(=O)O)cc2)C1 [LNP023]
[3]; 20 mg/kg orally twice daily
  day from which statistical decreases in urine total protein/creatinine ratio began: 11 days
  decrease in the ratio of total protein/creatinine in rat urine compared to the model group: 56.4%
  decrease in rat serum iC3b+C3d compared to the model group: 62.2%
[3]; 60 mg/kg orally twice daily
  day from which statistical decreases in urine total protein/creatinine ratio began: 11 days
  decrease in the ratio of total protein/creatinine in rat urine compared to the model group: 47.1%
  decrease in rat serum iC3b+C3d compared to the model group: 68.8%
[3]; day 14, across dose groups
  dose dependence of the decrease in urine total protein/creatinine ratio: not significantly dose-dependent
[4]; at 13 weeks, all the patients, LNP023 twice daily with eculizumab
  decrease in LDH: 34-81%
[4]; at 13 weeks
  males with Hb>120 g/L: 71%
[4]; twice daily for at least 13 weeks with eculizumab
  tolerability: well tolerated

## CCO[C@H]1C[C@H]2CCC(c3ccc(C(=O)O)cc3)(C1)N2Cc1c(C)cc(C)c2[nH]ccc12 (stereo in doubt) [Example 3, 4-((1S,3S,5R)-8-((5,7-Dimethyl-1H-indol-4-yl)methyl)-3-ethoxy-8-azabicyclo[3.2.1]octan-1-yl)benzoic acid]
[1]
  IC50: 49.8 nM
[2]
  IC50: 4.9 nM

## OMS721: humanized monoclonal antibody targeting the MASP-2 protein developed by Omeros Inc.
IgAN patients
  proteinuria index: significantly improved

Source: patent publication US20250250267A1, “NITROGEN-CONTAINING BRIDGED HETEROCYCLIC COMPOUND, PREPARATION METHOD THEREFOR, AND MEDICAL USE THEREOF” (Jiangsu Hengrui Pharmaceuticals Co., Ltd., priority 2020, published 2025)
